Results as given in patent US20260184663A1, “INDENE COMPOUNDS, PHARMACEUTICAL COMPOSITIONS THEREOF, AND THEIR THERAPEUTIC APPLICATIONS” (NucMito Pharmaceuticals co. Ltd., priority 2022, published 2026).
Like-named read-outs stand apart in the source and are kept apart here.

How the values were obtained:
Assay type in all cases: cell-based
SW480 (colon cancer) = assay: Antiproliferative activity (CCK-8 cell viability), SW480; conditions: Homo sapiens, 72 h, read-out: Antiproliferative activity in cancerous cells, SW480 (inhibition of cell growth); for inhibition at 3.3 µM: Compound concentration: 3.3 μM; for inhibition at 10 µM: Compound concentration: 10 μM; for inhibition at 30 µM: Compound concentration: 30 μM
Method in brief: (§1)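 Cells grown in DMEM (HepG2, SW480), MEM (HeLa) or F-12K (A549), each with 10% FBS, then exposed to compound at 3.3, 10 or 30 μM for 72 h at 37 °C. CCK-8 absorbance at 450 nm; viability expressed as percent of DMSO-treated cells, graded as growth inhibition bands.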

[1] = tested on: MDA-MB-231 (breast cancer); assay: Antiproliferative activity (CCK-8 cell viability), MDA-MB-231; conditions: Homo sapiens, 72 h; for inhibition at 3.3 µM: Compound concentration: 3.3 μM; for inhibition at 10 µM: Compound concentration: 10 μM; for inhibition at 30 µM: Compound concentration: 30 μM
Method in brief: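 MDA-MB-231 breast cancer cells, grown in DMEM with 10% FBS, were plated in 96-well plates at 2,000-5,000 cells/well. Once attached, they were exposed to compound and incubated at 37° C. for 72 h. Viability was then measured with CCK-8 (10 μL per well, 4 h at 37° C.) by absorbance at 450 nm, relative to DMSO vehicle wells.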

[2] = tested on: alpha-smooth muscle actin (α-SMA); assay: Inhibition of TGF-β induced expression of alpha-smooth muscle actin (α-SMA) in CFSC cells (western blot); conditions: compound at 10 μM, TGF-β (10 ng/mL), 24 hours, band intensity vs TGF-β only
Method in brief: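 Values are percent reduction of α-SMA band intensity relative to cells given TGF-β alone, quantified by Western blot densitometry with β-actin probed. Compound was applied at 10 μM alongside 10 ng/mL TGF-β to serum-free CFSC cultures for 24 h at 37 °C.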

[3] = tested on: A431 (epidermoid carcinoma); assay: Antiproliferative activity (CCK-8 cell viability), A431; conditions: Homo sapiens, 72 h, read-out: Antiproliferative activity in cancerous cells, A431 (inhibition of cell growth); for inhibition at 3.3 µM: A-431, Compound concentration: 3.3 μM; for inhibition at 10 µM: A-431, Compound concentration: 10 μM; for inhibition at 30 µM: A-431, Compound concentration: 30 μM
Method in brief: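 A431 epidermoid carcinoma cells grown in DMEM with 10% FBS were plated at 2,000-5,000 cells/well in 96-well plates. After attachment they were exposed to compound at 3.3 μM, 10 μM, or 30 μM for 72 h at 37° C. Viability was then assessed by CCK-8 against DMSO vehicle-treated wells.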

[4] = tested on: B16F10 (malignant melanoma); assay: Antiproliferative activity (CCK-8 cell viability), B16F10; conditions: Mus musculus, 72 h, read-out: Antiproliferative activity in cancerous cells, B16F10 (inhibition of cell growth); for inhibition at 3.3 µM: B16-F10, Compound concentration: 3.3 μM; for inhibition at 10 µM: B16-F10, Compound concentration: 10 μM; for inhibition at 30 µM: B16-F10, Compound concentration: 30 μM
Method in brief: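 B16F10 melanoma cells grown in DMEM with 10% FBS were plated in 96-well plates at 2,000-5,000 cells/well. After attachment they were exposed to compound in medium for 72 h at 37° C. CCK-8 solution (10 μL) was then added, and after 4 h at 37° C absorbance was read at 450 nm.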

[5] = tested on: A549 (lung adenocarcinoma); assay: Antiproliferative activity (CCK-8 cell viability), A549; conditions: Homo sapiens, 72 h; for inhibition at 3.3 µM: Compound concentration: 3.3 μM; for inhibition at 10 µM: Compound concentration: 10 μM; for inhibition at 30 µM: Compound concentration: 30 μM
Method in brief: as §1

HeLa (cervical cancer) = assay: Antiproliferative activity (CCK-8 cell viability), HeLa; conditions: Homo sapiens, 72 h; for inhibition at 3.3 µM: Compound concentration: 3.3 μM; for inhibition at 10 µM: Compound concentration: 10 μM; for inhibition at 30 µM: Compound concentration: 30 μM
Method in brief: as §1

HepG2 (liver cancer) = assay: Antiproliferative activity (CCK-8 cell viability), HepG2; conditions: Homo sapiens, 72 h; for inhibition at 3.3 µM: Compound concentration: 3.3 μM; for inhibition at 10 µM: Compound concentration: 10 μM; for inhibition at 30 µM: Compound concentration: 30 μM
Method in brief: as §1

[6] = read-out: Antiproliferative activity in cancerous cells, MDA-MB-231 (inhibition of cell growth)
[7] = read-out: Antiproliferative activity in cancerous cells, A549 (inhibition of cell growth)
[8] = read-out: Antiproliferative activity in cancerous cells, HELA (inhibition of cell growth)
[9] = read-out: Antiproliferative activity in cancerous cells, HepG2 (inhibition of cell growth)

SMILES | inhibition at 3.3 µM (SW480 (colon cancer)) [%] | inhibition at 10 µM (SW480 (colon cancer)) [%] | inhibition at 3.3 µM [1, 6] [%] | inhibition at 10 µM [1, 6] [%] | inhibition at 10 µM [2] [%] | inhibition at 3.3 µM [3] [%] | inhibition at 10 µM [3] [%] | inhibition at 3.3 µM [4] [%] | inhibition at 10 µM [4] [%] | inhibition at 3.3 µM [5, 7] [%] | inhibition at 10 µM [5, 7] [%] | inhibition at 3.3 µM (HeLa (cervical cancer); [8]) [%] | inhibition at 10 µM (HeLa (cervical cancer); [8]) [%] | inhibition at 3.3 µM (HepG2 (liver cancer); [9]) [%] | inhibition at 10 µM (HepG2 (liver cancer); [9]) [%] | further results
CCc1ccc2c(c1)C(CC(=O)O)=C(C)/C2=C/c1cccc(COc2ccccc2)c1 [B11, (Z)-2-(5-Ethyl-2-methyl-1-(3-(phenoxymethyl)benzylidene)-1H-inden-3-yl)acetic acid] | ≥ 50 | ≥ 50 | 30 to 50 | ≥ 50 | > 80 | ≥ 50 | ≥ 50 | ≥ 50 | ≥ 50 | 30 to 50 | ≥ 50 | < 30 | ≥ 50 | ≥ 50 | ≥ 50 | –
CCc1ccc2c(c1)C(CC(=O)O)=C(C)/C2=C/c1ccc(COc2ccccc2)cc1 [B5, (Z)-2-(5-Ethyl-2-methyl-1-(4-(phenoxymethyl)benzylidene)-1H-inden-3-yl)acetic acid] | ≥ 50 | ≥ 50 | < 30 | ≥ 50 | > 80 | ≥ 50 | ≥ 50 | ≥ 50 | ≥ 50 | 30 to 50 | ≥ 50 | < 30 | ≥ 50 | ≥ 50 | ≥ 50 | –
CC1=C(CCO)c2cc(F)ccc2/C1=C\c1ccc(Oc2ccc(F)cc2)cc1 [A201, (Z)-2-(5-Fluoro-1-(4-(4-fluorophenoxy)benzylidene)-2-methyl-1H-inden-3-yl)-ethan-1-ol] | ≥ 50 | ≥ 50 | 30 to 50 | ≥ 50 | < 30 | ≥ 50 | ≥ 50 | < 30 | ≥ 50 | 30 to 50 | ≥ 50 | 30 to 50 | ≥ 50 | ≥ 50 | ≥ 50 | –
CC1=C(CC(=O)O)c2cc(F)cc(F)c2/C1=C/c1cccc(COc2ccccc2)c1 [E7, (E)-2-(5,7-Difluoro-2-methyl-1-(3-(phenoxymethyl)benzylidene)-1H-inden-3-yl)-acetic acid] | ≥ 50 | ≥ 50 | < 30 | ≥ 50 | > 80 | 30 to 50 | ≥ 50 | < 30 | < 30 | ≥ 50 | ≥ 50 | ≥ 50 | ≥ 50 | 30 to 50 | ≥ 50 | inhibition at 30 µM (SW480 (colon cancer)): ≥ 50%; inhibition at 30 µM [1, 6]: ≥ 50%; inhibition at 30 µM [3]: ≥ 50%; inhibition at 30 µM [4]: ≥ 50%; inhibition at 30 µM [5, 7]: ≥ 50%; inhibition at 30 µM (HeLa (cervical cancer); [8]): ≥ 50%; inhibition at 30 µM (HepG2 (liver cancer); [9]): ≥ 50%
CC1=C(CC(=O)O)c2c(F)ccc(F)c2/C1=C/c1ccc(C(C)C)cc1 [E12, (E)-2-(4,7-Difluoro-1-(4-isopropylbenzylidene)-2-methyl-1H-inden-3-yl)acetic acid] | < 30 | 30 to 50 | ≥ 50 | ≥ 50 | < 30 | < 30 | 30 to 50 | 30 to 50 | ≥ 50 | < 30 | 30 to 50 | < 30 | 30 to 50 | < 30 | < 30 | inhibition at 30 µM (SW480 (colon cancer)): ≥ 50%; inhibition at 30 µM [1, 6]: ≥ 50%; inhibition at 30 µM [3]: ≥ 50%; inhibition at 30 µM [4]: ≥ 50%; inhibition at 30 µM [5, 7]: ≥ 50%; inhibition at 30 µM (HeLa (cervical cancer); [8]): ≥ 50%; inhibition at 30 µM (HepG2 (liver cancer); [9]): 30 to 50%
CC1=C(CC(=O)O)c2cc(F)cc(F)c2/C1=C\c1cccc(COc2ccccc2)c1 [B7, (Z)-2-(5,7-Difluoro-2-methyl-1-(3-(phenoxymethyl)benzylidene)-1H-inden-3-yl)-acetic acid] | ≥ 50 | ≥ 50 | ≥ 50 | ≥ 50 | > 80 | 30 to 50 | ≥ 50 | < 30 | 30 to 50 | < 30 | 30 to 50 | ≥ 50 | 30 to 50 | 30 to 50 | 30 to 50 | –
COc1ccc2c(c1)/C(=C\c1cccc(COc3ccc(F)cc3)c1)C(C)=C2CC(=O)O [B22, (Z)-2-(1-(3-((4-Fluorophenoxy)methyl)benzylidene)-6-methoxy-2-methyl-1H-inden-3-yl)acetic acid] | < 30 | < 30 | 30 to 50 | 30 to 50 | > 80 | < 30 | < 30 | < 30 | < 30 | < 30 | < 30 | < 30 | 30 to 50 | < 30 | < 30 | –
CC1=C(CC(=O)O)c2cc(C)ccc2/C1=C\c1ccc(COc2ccccc2)cc1 [B4, (Z)-2-(2,5-Dimethyl-1-(4-(phenoxymethyl)benzylidene)-1H-inden-3-yl)acetic acid] | < 30 | 30 to 50 | 30 to 50 | 30 to 50 | < 30 | ≥ 50 | < 30 | ≥ 50 | ≥ 50 | 30 to 50 | 30 to 50 | < 30 | 30 to 50 | 30 to 50 | < 30 | inhibition at 30 µM ([1]; read-out: Antiproliferative activity in cancerous cells, MDA-MB-231): < 30%; inhibition at 30 µM ([5]; read-out: Antiproliferative activity in cancerous cells, A549): 30 to 50%; inhibition at 30 µM (HeLa (cervical cancer); read-out: Antiproliferative activity in cancerous cells, HELA): 30 to 50%; inhibition at 30 µM (HepG2 (liver cancer); read-out: Antiproliferative activity in cancerous cells, HepG2): < 30%
